“Also recorded” adds a separate entry of the source. Read-outs that look alike come from different tables or passages of the source.
Tests used:
[1] = tested on: Leishmania major (amastigote); assay: Antiparasitic activity in vitro (intracellular amastigote); format: cell-based; settings: intracellular amastigotes
Method: (§1) Half maximal inhibitory concentration (IC50) required to inhibit 50% of the in vitro cell growth or viability were determined with broth microdilution method according to the European committee on antimicrobial susceptibility testing recommendations (protocols E.DEF 7.3.1 for Candida spp.) and according to a certified internal procedure to the laboratory IICiMed (for Leishmania spp.) (Le Pape, et al. Acta Parasitologica 2002, 47, 79-81). […]
(§2) Growth or cell viability was performed on flat-bottomed microplate, firstly appreciated by visual reading and always confirmed using a Bio-Rad iMark microplate absorbance reader to measure the absorbance of the plate at 595 nm or using a resazurin salt cell viability assay with a Packard fluorocount microplate reader BF10000 with halogen light source to measure the fluorescence at 590 nm after excitation at 530 nm. Results represent the mean (±the standard error of the mean SEM if available) calculated from at least two independent experiments performed each in triplicate on one or several strains. […]

HeLa cells = assay: Human cells cytotoxicity, HeLa; format: cell-based; settings: for IC50: HeLa cell line
Method: (§3) Half maximal inhibitory concentration (IC50) required to inhibit 50% of the in vitro cell growth or viability were determined with broth microdilution method according to the European committee on antimicrobial susceptibility testing recommendations (protocols E.DEF 7.3.1 for Candida spp.) and according to a certified internal procedure to the laboratory IICiMed (for Leishmania spp.) (Le Pape, et al. Acta Parasitologica 2002, 47, 79-81).
(§4) The different strains, isolates and cell lines used are listed below: • Candida albicans clinical strain (IICiMed number CAAL93) • Candida albicans clinical strain (IICiMed number CAAL121) • Candida albicans reference strain SC5314 (IICiMed number CAAL146) • Leishmania major reference isolate MHOM/IL/81/BNI (IICiMed number LEMA1) • A549 cell line reference ATCC® CCL-185 (carcinoma epithelial cells from lung) • HeLa cell line reference
(§5) Growth or cell viability was performed on flat-bottomed microplate, firstly appreciated by visual reading and always confirmed using a Bio-Rad iMark microplate absorbance reader to measure the absorbance of the plate at 595 nm or using a resazurin salt cell viability assay with a Packard fluorocount microplate reader BF10000 with halogen light source to measure the fluorescence at 590 nm after excitation at 530 nm. Results represent the mean (±the standard error of the mean SEM if available) calculated from at least two independent experiments performed each in triplicate on one or several strains. The values are expressed with the corresponding pathogens and are represented in μM.

Galleria mellonella = assay: Toxicity on the Galleria mellonella model; format: in vivo; settings: uninfected larvae, dose 2 mg·kg-1
Method: The larval model represents a rapid and practical tool for assessing the intrinsic toxicity of an active substance. See Le Pape et al, 2019, Int J Infect Dis. 2019 April; 81:85-90 for more details concerning the model. The larvae were incubated with AmB, AmB prodrug (Compound 1) and vehicle. At the dose of 2 mg·kg-1, AmB was very toxic leading to a 40% survival of the treated group. In comparison, at an equivalent dose, its prodrug was much less toxic with a percentage survival of 80%.

[2] = tested on: Leishmania major (promastigote); assay: Antiparasitic activity in vitro (promastigote); format: cell-based; settings: mean ± SEM
Method: as §1, §2

Cryptococcus neoformans [3] = assay: In vivo anti-Cryptococcus activity in Galleria mellonella model (C. neoformans); settings: dose 2 mg·kg-1
Method: (§6) This model also constitutes a screening model and a good alternative to the traditional studies on murine models for the evaluation of the activity of antifungal molecules. The AmB prodrug of the invention (Compound 1) was evaluated for its antifungal efficacy against Cryptococcus neoformans and Cr. gattii. […] In the absence of treatment, all larvae died after 6 days and 5 days, respectively. For Cryptococcus neoformans, at a dose of 2 mg·kg-1, amphotericin B led to 50% survival and its prodrug was also effective with a percentage survival of 30% at an equivalent dose.

[4] = tested on: Candida albicans (filamented yeasts); assay: Antifungal activity in vitro, broth microdilution (filamented yeasts); format: cell-based; settings: mean ± SEM
Method: as §1, §2

[5] = tested on: Candida albicans (blastospores); assay: Antifungal activity in vitro, broth microdilution (blastospores); format: cell-based; settings: mean ± SEM
Method: as §1, §2

Cryptococcus neoformans [6] = assay: Antifungal activity in vitro; format: cell-based
Method: as §3, §5

Cryptococcus gattii = assay: Antifungal activity in vitro; format: cell-based
Method: as §3, §5

Cr. gattii = assay: In vivo anti-Cryptococcus activity in Galleria mellonella model (Cr. gattii)
Method: as §6
In the case of Cr. gattii, amphotericin B and the prodrug led to 30% and 20% survival respectively.

[7] = Human cells cytotoxicity, A549; format: cell-based; settings: human, A549 cells (ATCC CCL-185, lung carcinoma epithelial cells), pneumocyte line A549
Method: as §1, §2

A549 = assay: Human cells cytotoxicity, A549; format: cell-based; settings: pneumocyte line A549
Method: as §1, §2

[8] = Human cells cytotoxicity, HeLa; format: cell-based; settings: human, HeLa cells; HeLa cell line
Method: as §3, §4, §5

[9] = tested on: C. albicans blastoconidia; assay: Mouse model of C. albicans blastoconidia infection; format: in vivo, mice; settings: 1 mg/kg i.p. once daily for 3 days, listed as AmB prodrug
Method: Mice were immunosuppressed by subcutaneous injection of 30 mg/kg prednisolone one day before challenge. On day 0, mice were infected intravenously C. albicans blastoconidia. One hour after infection, mice were treated intraperitoneally once daily with 1 mg/kg body weight of Fungizone®, Ambisome® and AmB prodrug (Compound 1, FIG. 1A) for 3 consecutive days. The control group received sterile distillated water (vehicle). Survival was monitored for 14 days post inoculation. Differences in cohorts were analyzed by the log-rank test. On day 14, all mice were euthanized and their kidneys were excised and weighed. Tissues were homogenized and serially diluted 10- to 1000-fold in sterile saline, then plated onto Sabouraud dextrose agar and incubated for 48 h to determine the number of CFUs. Tissue fungal burden was expressed as average log CFUs/gram of tissue. Differences in mean CFUs in kidneys were compared with the vehicle control using a one-way ANOVA with a post-hoc Tukey test. A P value of <0.05 was considered statistically significant.

[10] = Human cells cytotoxicity, hPBMC; format: cell-based; settings: human peripheral blood mononuclear cells (hPBMC); human PBMC
[11] = Aqueous stability in the absence of enzyme; format: physicochemical; settings: for aqueous stability (in words): aqueous medium/buffer, 37° C., absence of the enzyme
Method: Enzymatic Release and Aqueous Stability In vitro enzymatic hydrolysis was carried out with commercial β-N-acetylhexosaminidase from Canavalia ensiformis E.C. 3.2.1.52 (22.8 units·mg^−1 protein, suspension in 2.5 M ammonium sulfate, pH 7.0). Using a VWR® Cooling Thermal Shake Touch and monitoring by analytical LC. Prodrug 1 was incubated with the enzyme according to the table below: […]

Q: With `C[C@@H]1[C@H](O)[C@@H](C)/C=C/C=C/C=C/C=C/C=C/C=C/C=C/[C@H](O[C@@H]2O[C@H](C)[C@@H](O)[C@H](N)[C@@H]2O)C[C@@H]2O[C@](O)(C[C@@H](O)C[C@@H](O)[C@H](O)CC[C@@H](O)C[C@@H](O)CC(=O)O[C@H]1C)C[C@H](O)[C@H]2C(=O)O` [Amphotericin B, amphotericin B, reference compound] as the compound, how does the IC50 [1] read?
A: < 100 nM

Q: What about the IC50 (HeLa cells) of the same compound?
A: 23290 ± 110 nM

Q: And the IC50 (HeLa cells; listed as AmB)?
A: ~23000 nM

Q: And the “survival of the treated group (toxicity)” value (Galleria mellonella)?
A: 40%

Q: What about the IC50 [2] of the same compound?
A: 310 ± 20 nM

Q: What about the “percentage survival, larvae infected with Cryptococcus neoformans” value (Cryptococcus neoformans [3]) of the same compound?
A: 50%

Q: And the IC50 [4]?
A: 310 ± 10 nM

Q: And the IC50 [5]?
A: 360 ± 40 nM

Q: What about the IC50 (Cryptococcus neoformans [6]) of the same compound?
A: 30 nM

Q: What about the IC50 (Cryptococcus gattii) of the same compound?
A: 40 nM

Q: And the “survival, larvae infected with Cr. gattii” value (Cr. gattii)?
A: 30%

Q: With `CC(=O)N[C@H]1[C@H](Oc2ccc(COC(=O)N[C@@H]3[C@H](O)[C@H](O[C@H]4/C=C/C=C/C=C/C=C/C=C/C=C/C=C/[C@H](C)[C@@H](O)[C@@H](C)[C@H](C)OC(=O)C[C@H](O)C[C@H](O)CC[C@@H](O)[C@H](O)C[C@H](O)C[C@]5(O)C[C@H](O)[C@@H](C(=O)O)[C@H](C4)O5)O[C@H](C)[C@H]3O)cc2[N+](=O)[O-])O[C@H](CO)[C@@H](O)[C@@H]1O` [Compound 1] as the compound, how does the IC50 ([1]; Leishmania major) read?
A: < 100 nM

Q: What about the IC50 [7] of the same compound?
A: > 50000 nM

Q: What about the IC50 (A549) of the same compound?
A: > 100000 nM

Q: And the “toxicity on HELA cells (in words)” value (HeLa cells)?
A: does not exhibit any significant toxicity

Q: What about the IC50 [8] of the same compound?
A: > 100000 nM

Q: And the “survival of the treated group (toxicity)” value (Galleria mellonella)?
A: 80%

Q: What about the “fungal burden of the kidney” value ([9]; day 14, vs control group) of the same compound?
A: significantly reduction of the burden; also recorded: significant decrease in the kidney fungal load

Q: What about the survival ([9]; immunosuppressed mice, 14 days monitoring, vs vehicle, 1 mg/kg) of the same compound?
A: statically improved survival; also recorded: significant improvement in survival

Q: What about the IC50 ([2]; Leishmania major) of the same compound?
A: 270 ± 60 nM

Q: What about the “percentage survival, larvae infected with Cryptococcus neoformans” value (Cryptococcus neoformans [3]) of the same compound?
A: 30%

Q: What about the IC50 ([4]; Candida albicans) of the same compound?
A: 420 ± 10 nM

Q: What about the IC50 ([5]; Candida albicans) of the same compound?
A: 430 ± 20 nM

Q: What about the IC50 [10] of the same compound?
A: > 50000 nM

Q: And the IC50 (Cryptococcus neoformans [6]; Cryptococcus neoformans)?
A: 250 nM

Q: What about the IC50 (Cryptococcus gattii; Cryptococcus gattii) of the same compound?
A: 600 nM

Q: What about the “aqueous stability (in words)” value ([11]; listed as AmB prodrug) of the same compound?
A: stable

Q: What about the “aqueous stability (in words)” value ([11]; listed as prodrug) of the same compound?
A: stable

Q: And the “aqueous stability (in words)” value ([11]; listed as prodrug 1)?
A: good aqueous stability

Q: And the half-life ([11]; aqueous solution without enzyme, aqueous, pH 7.4, 37° C., read-out: t1/2 aq, pH 7.4, 37° C.)?
A: > 24 h

Q: And the “survival, larvae infected with Cr. gattii” value (Cr. gattii)?
A: 20%

Reference: patent US20230218652A1, “ANTIFUNGAL PRODRUGS” (CENTRE NATIONAL DE LA RECHERCHE SCIENTIFIQUE, priority 2020, published 2023)
